Legend:
[1] = tested on: hGGT expressed on the surface of 786-0 cells; experiment: Catabolism of extracellular GSH by 786-O cells; assay type: cell-based, human; conditions: 100 μM Compound 6, 20 μM GSH, one hour; 60 min
Protocol: (§1) Cell Lines: 786-0 cells (ATCC CRL-1932), a human renal adenocarcinoma cell line, were grown in Dulbecco's Modified Eagle's Medium (DMEM) supplemented with 10% fetal bovine serum (FBS) and penicillin/streptomycin (50 units/ml, 50 μg/ml). NIH3T3 cells (ATCC CRL 1658) which are GGT-negative and NIH3T3 cells expressing hGGT [described previously were grown in DMEM/F12 media supplemented with 5% FBS and 0.2 mg/ml G418.
(§2) Catabolism of Extracellular GSH: 786-O and NIH3T3 cells were plated in 96-well plates at a density of 5×10^3 cells/well. After 24 hours, the media was changed to 100 μl cysteine-free DMEM/F12 supplemented with either 20 μM GSH or 20 μM GSH and 100 μM compound 6. After one hour, 50 μl of media was removed and immediately acidified with 5 μl ice-cold 43.1% 5-sulfosalicylic acid. After 10 minutes on ice, the solution was neutralized with 15 μl of 1 M NaOH. The GSH concentration was determined by the method of Tietze.

[2] = tested on: 786-0 cells; experiment: Cytotoxicity in dividing 786-O cells (MTT assay, 72 hours); assay type: cell-based, human
Protocol: as §1
(§3) Cytotoxicity Assays: 786-0 cells were plated at 10^3 cells/well in a 96-well plate in DMEM supplemented with 10% FBS and penicillin/streptomycin (50 units/ml, 50 μg/ml). After 24 hours, the media was changed to fresh media containing OU749 analogs. A 100 mM stock of OU749 and each of its analogs were made in DMSO then diluted in DMEM. Control wells were treated with equivalent concentrations of DMSO. Cell viability was determined 72 hours after the addition of the inhibitors by the MTT assay. For the toxicity of the OU749 and its analogs in 786-0 cells, all determinations were done in triplicate. The LD50 of each compound and the standard deviation (S.D.) were calculated with a Prism log (inhibitor) versus normalized response (variable slope) curve fit (Prism, GraphPad Software Inc., San Diego, Calif.).

[3] = as above; assay type: cell-based, human; conditions: human, 786-o cells, dividing 786-O cells, 72 hours; read-out: LD50
Protocol: as §1, §3

[4] = tested on: human GGT in NIH3T3^GGT cells; experiment: Catabolism of extracellular GSH by NIH3T3 cells transfected with human GGT; assay type: cell-based; conditions: Compound 6 100 μM, 20 μM GSH, one hour; 60 min
Protocol: as §1, §2

[5] = biological target: T1, Human GGT1 (hGGT) (Homo sapiens, UniProt P19440); experiment: D-GpNA Hydrolysis Assay (release of pNA, 405 nm, pH 7.4)
Protocol: (§4) Enzyme Isolation: Human GGT1 (P19440), lacking the transmembrane domain, was expressed in Pichia pastoris and isolated as previously described (14). […] One unit of GGT activity was defined as the amount of enzyme that released 1 μmol of paranitroaniline/min at 37° C. at pH 7.4 in the transpeptidation reaction.
The reaction was initiated with the addition of 19 mU GGT. The reaction was incubated at 37° C. and monitored continuously at 405 nm by a Bio-Rad model 680 microplate reader with Microplate Manager 5.2 software (Bio-Rad, Hercules, Calif.).
Data Analysis: Samples in each experiment were run in triplicate. Each inhibitor was evaluated in two or more independent experiments. Double reciprocal plots were generated to assess data quality and determine the correct rate equation for data fitting. Data were fitted using the proper rate equation and the Marquardt-Levenberg algorithm supplied with the Enzfitter program (BIOSOFT, Cambridge, UK). Kinetic parameters with standard errors were estimated using a simple weighting method.
Data adhering to Michaelis-Menten Kinetics were fitted to eq. 1. Data for initial rate patterns with D-, L-GpNA varied at different fixed levels of glygly were fitted to eq. […] Data for competitive and uncompetitive inhibition were fitted to eqs. 3 and 4. Data for the dependence of Vmax and Vmax/KD-GpNA on the concentration of activator were fitted using eq. 5 (25).
In eqs 1-6, Vmax are the initial and maximum rates, respectively, Ka and Kb are Michaelis constants for substrates A and B, respectively, and Kis and Kii are slope and intercept inhibition constants. In eq. 5, a is the value of Vmax or Vmax/KD-GpNA at zero activator/inhibitor, KID is the activation or inhibition constant, and KIN is a constant that causes the parameter to go to a constant value at infinite concentrations of X, the activator/inhibitor. The product a(KID/KIN) is the value of Vmax or Vmax/KD-GpNA at infinite activator/inhibitor (25). Data for noncompetitive inhibition were fitted to eq. 6. Data for the dependence of Vmax and Vmax/KD-GpNA on the concentration of activator were fitted using […].
as §4, with “hGGT” for “Human GGT1”, “described.” for “described (14).”, “reaction with L-GpNA.” for “reaction.”
D-GpNA Hydrolysis Assay: The assay was carried out as previously described. […] The reaction was initiated with the addition of 19 mU GGT as determined by the L-GpNA transpeptidation assay. The reaction was incubated at 37° C. and monitored continuously at 405 nm.

[6] = biological target: T1, Human GGT1 (hGGT); experiment: L-GpNA Transpeptidation Assay with GlyGly as acceptor; assay type: biochemical; parameters: lacking the transmembrane domain; made in house; host or cells: Pichia pastoris; conditions: Table 2
Protocol: Transpeptidation Reaction: The same assay buffer was used for both the hydrolysis reaction and the transpeptidation reaction. The transpeptidation reaction included 40 mM glycylglycine (glygly, Sigma, St. Louis, Mo.) as the acceptor. […] The concentration of L-GpNA was 3 mM for experiments in which the concentration of glygly was varied. To initiate the transpeptidation reaction, 4 mU GGT were added.
1. […] 3 and 4. […] 5 (25).
L-GpNA Transpeptidation Assay: The assay has been described previously. […] The concentration of L-GpNA was 3 mM for experiments in which the concentration of GlyGly was varied. To initiate the transpeptidation reaction, 4 mU GGT were added.

[7] = biological target: T2, hGGT (Homo sapiens, UniProt P19440); experiment: L-Glutamate Release Assay (Hydrolysis of GSH); assay type: biochemical
T2 construct: lacking the transmembrane domain; made in house; host or cells: Pichia pastoris
Protocol: L-Glutamate Release Assay (Hydrolysis of GSH): This assay measures the production of glutamate from the hydrolysis of GSH by GGT enzyme and has been described in detail previously. The concentration of the substrate, GSH, was varied from 5 μM to 20 μM. The concentration of the inhibitors, OU749 and its analogs, were varied from 15.6 μM to 250 μM. The reaction was initiated with the addition of 10 mU hGGT. […] All compounds were also evaluated as inhibitors of glutamate dehydrogenase, the enzyme in the second half of the L-glutamate release assay. None of the compounds in this study inhibited glutamate dehydrogenase.

T1 sequence (P19440 381-569 limits assumed): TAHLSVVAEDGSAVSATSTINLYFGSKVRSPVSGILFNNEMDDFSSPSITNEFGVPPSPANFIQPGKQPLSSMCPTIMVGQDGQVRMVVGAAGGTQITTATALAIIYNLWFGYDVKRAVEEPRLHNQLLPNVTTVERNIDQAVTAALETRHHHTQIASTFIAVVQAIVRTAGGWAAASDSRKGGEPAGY
T1 sequence (P19440 27-380 limits assumed): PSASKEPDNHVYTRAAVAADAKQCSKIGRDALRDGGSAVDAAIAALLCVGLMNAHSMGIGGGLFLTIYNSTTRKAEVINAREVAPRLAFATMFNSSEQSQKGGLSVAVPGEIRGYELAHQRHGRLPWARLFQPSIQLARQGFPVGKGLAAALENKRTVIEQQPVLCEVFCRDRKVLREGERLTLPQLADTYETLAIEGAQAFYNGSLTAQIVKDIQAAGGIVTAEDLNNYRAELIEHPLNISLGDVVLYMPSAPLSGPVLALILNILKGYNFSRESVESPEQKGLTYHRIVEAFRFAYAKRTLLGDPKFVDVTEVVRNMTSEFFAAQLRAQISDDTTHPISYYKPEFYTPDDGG
T2 sequence (P19440 381-569 limits assumed): as the sequence (P19440 381-569 limits assumed) above
T2 sequence (P19440 27-380 limits assumed): as the sequence (P19440 27-380 limits assumed) above

With `COc1ccc(Cc2nnc(NS(=O)(=O)c3cccc4ccccc34)s2)cc1` [Compound 6] the “block of hGGT catabolism of extracellular GSH” value [1] was 51%, the “fold less toxic (cytotoxic) than OU749” value ([2]; LD50 ratio, 786-O cells) was “more than 16 fold” and the CC50 ([2]; dividing 786-O cells, 72 hours, 4320 min, read-out: LD50 (the source's name)) was 2090 ± 20 µM. The CC50 at 72 h [3] was ~2100 µM, the “reduction of GSH metabolism in the media” value [4] was 59% and the Ki ([5]; read-out: Hydrolysis D-GpNA Kii, D-GpNA substrate, Table 2) was 161 ± 4.5 µM. The “fold less effective than OU749 in inhibiting hydrolysis of D-GpNA” value ([5]; relative to OU749) was 2-5 fold, the Ki ([6]; GlyGly varied, 3 mM L-GpNA, read-out: Transpeptidation GlyGly Kis) was 45.7 ± 3.4 µM and the Ki ([6]; L-GpNA varied, 40 mM GlyGly, read-out: Transpeptidation L-GpNA Kii) was 74.9 ± 3.6 µM. For the same compound, the Ki ([7]; GSH hydrolysis, Table 6, read-out: GSH Kii) was 96 ± 2 µM and the “fold more potent than OU749 in inhibiting GSH hydrolysis” value ([7]; relative to OU749) was 4 fold.
